# Key:
# Type in all cases: cell-based, rat
# [1] = system: cerebellar granule neurons; experiment: Glutamate-induced excitotoxicity of cerebellar granule neurons; details: 200 μM glutamate, 24 hours
# Protocol: Cerebella with meninges and blood vessels removed were obtained from 7-8 days old rats weighted 15-20 g. 0.05 g/L DNase I was used to pipette the cell to single cell suspension following 0.25 g/L trypsin digestion. The suspension was then centrifuged to collect precipitation and resuspended with BME medium containing 10% (v/v) FBS and 25 mM KCl. The cells were then seeded on dishes pre-coated with poly-lysine. 24 hours following the seeding, 10 μM Ara-C was added to inhibit growth and proliferation of non-neuron cells, such that the cerebellar granule neurons have purity not less than 95%. Glucose was added during culture to provide supplementary energy for cellular metabolism. Experiments were carried out at 8 DIV.
# (§1) The cerebellar granule neurons cultured for 8 days were divided into four groups: control group, glutamate group, MK801+glutamate group, and YC-6+glutamate group. The control group received no treatment. The glutamate group was treated with 200 μM glutamate. The MK801 group and the YC-6 group were pre-treated with MK801 (10 μM) and YC-6 with different concentrations, respectively, followed by incubation at 37° C. for 30 minutes, then glutamate was added. After 24 hours, phase contrast microscope was used to observe neuronal morphologies. The cells were stained by FDA and observed under inverted fluorescent microscope for cell counting to calculate survival rate of neurons. The activity of lactate dehydrogenase (LDH) was also determined for each group. Survival Rate=Number of live cells for each group/Number of live cells in the control group*100%
# cortical neurons [2] = experiment: Glutamate-induced excitotoxicity of cortical neurons; details: 200 μM glutamate, 24 hours
# Protocol: (§2) Cortex with meninges and blood vessels removed were obtained from newborn (1-day old) rats. 0.05 g/L DNase I was used to pipette the cell to single cell suspension following 0.25 g/L trypsin digestion. The suspension was then centrifuged to collect precipitation and diluted it with DMEM-F12 medium containing 5% (v/v) FBS and 2% B27. The cell was seeded on dishes pre-coated with poly-lysine. 24 hours following the seeding, 10 μM Ara-C was added to inhibit growth and proliferation of non-neuron cells. Half medium change was performed 2-3 times per week. Experiments were carried out on the 10 DIV.
# as §1, with “primary cultured cortical” for “cerebellar granule”, “at 10 DIV” for “cultured for 8 days”, “nM)” for “μM)”
# spinal motor neurons = experiment: Glutamate-induced excitotoxicity of spinal motor neurons; details: 24 hours, pre-treated 30 minutes, MK801 10 μM, YC-6 different concentrations
# Protocol: Spinal cord was obtained from 15-day pregnant SD rats. The cristae membrane and blood film were removed. The spinal cord tissues of fetal rats is digested with 0.125% trypsin and then centrifuged to collect intermediate layer enriched with motor neurons. Cell debris were removed by centrifugation and cells were adhered by differential velocity adherent technique for 1 h. Suspending spinal motor neurons with slower adhering velocity were collected and seeded. 24 hours following the seeding, Ara-C was added. The Culture medium was replaced on the 3 DIV with L-15 serum free medium, followed by half medium change every 2˜3 days. Experiments were carried out on the 3-5 DIV.
# The primary cultured spinal motor neurons at 5 DIV were divided into four groups: control group, glutamate group, MK801+glutamate group, and YC-6+glutamate group. The control group received no treatment. The glutamate group was treated with […] glutamate. The MK801 group and the YC-6 group were pre-treated with MK801 (10 μM) and YC-6 with different concentrations, respectively, followed by incubation at 37° C. for 30 minutes, then glutamate was added. After 24 hours, phase contrast microscope was used to observe neuronal morphologies. […] The activity of lactate dehydrogenase (LDH) was also determined for each group. […]
# cortical neurons [3] = experiment: Hypoxia-induced damage of cortical neurons; details: hypoxia 1% oxygen, 12 hours; pretreated 30 min, MK801 10 μM, YC-6 different concentrations; compared with the control group
# Protocol: as §2
# The primary cultured cortical neurons at 10 DIV were divided into four groups: control group, hypoxia group, MK801+ hypoxia group, and YC-6+ hypoxia group. 3 duplicates wells were provided for each group. The control group was incubated in CO2 normoxic incubator. […]
# The treatment was performed in 96-well plates. […] The crystals were dissolved after half an hour and OD value was detected at 570 nm wavelength by Microplates-Reader. 50 μL of culture medium was obtained from all groups at different time points and LDH release was determined for each well according to the supplier's instructions. Data were presented as the mean±SD, one-way ANOVA and statistically analyzed using paired-samples t-test and analysis of variance among means of multiple samples. […]
structure (smiles),measurement,setting,value
C[C@]12N[C@H](Cc3ccccc31)c1ccccc12 [MK801],survival rate of neurons,"[1]; FDA staining, pre-treated 30 minutes, MK801 10 μM, YC-6 different concentrations, vs glutamate group",increased survival rate
same,neuronal morphology (phase contrast microscope),[1]; majority of neurons,maintain the integrity of soma and processes
same,LDH release,"[1]; pre-treated 30 minutes, MK801 10 μM, YC-6 different concentrations, vs glutamate group",decreased LDH release
same,survival rate of neurons,"cortical neurons [2]; FDA staining, pre-treated 30 minutes, MK801 10 nM, YC-6 different concentrations, vs glutamate group",increased survival rates
same,neuronal morphology (phase contrast microscope),cortical neurons [2]; a great number of neurons,maintained intact soma and neurites
same,LDH release,"cortical neurons [2]; pre-treated 30 minutes, MK801 10 nM, YC-6 different concentrations, vs glutamate group",decreased LDH release
same,number of spinal motor neurons (phase contrast microscope),spinal motor neurons,significantly increased
same,morphology of cortical neuronal cells,cortical neurons [3],no difference in morphology

# — patent publication US9320743B2, “Use of 5α-androstane-3β,5,6β-triol in preparation of neuroprotective drugs” (GUANGZHOU CELLPROTEK PHARMACEUTICAL LTD., priority 2010, dated 2016)
